Test results: ChEMBL document CHEMBL1201862, “PubChem BioAssay data set” (2004)
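Following 48 hours of exposure in 96-well plates, responses at five concentrations were used to interpolate endpoints linearly. Here, GI50 denotes the concentration required for 50% inhibition of growth.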 Activity calls are given as the source filed them. No stated cut-off is given here; in the data, active = GI50 up to about 1.1 µM and inactive = higher.

What was measured:
Test in all cases: NCI anticancer screen, dose series, 48 h
[1] = test system: ACHN
[2] = test system: SK-OV-3
[3] = test system: RXF 393
[4] = test system: MOLT-4
[5] = test system: RPMI-8226
[6] = test system: OVCAR-4
[7] = test system: U-251
[8] = test system: OVCAR-5
[9] = test system: HT-29
[10] = test system: UACC-62
[11] = test system: SNB-19
[12] = test system: NCI-H226
[13] = test system: HOP-62
[14] = test system: OVCAR-3
[15] = test system: NCI-H460
[16] = test system: T47D
[17] = test system: SK-MEL-5
[18] = test system: SNB-75
[19] = test system: BT-549
[20] = test system: HCT-116
[21] = test system: COLO 205
[22] = test system: MCF7
[23] = test system: MDA-N
[24] = test system: NCI-H23
[25] = test system: A549
[26] = test system: A498
[27] = test system: SR
[28] = test system: SF-539
[29] = test system: SF-295
[30] = test system: Malme-3M
[31] = test system: CCRF-CEM
[32] = test system: K562
[33] = test system: IGROV-1
[34] = test system: TK-10
[35] = test system: HCT-15
[36] = test system: EKVX
[37] = test system: OVCAR-8
[38] = test system: UO-31
[39] = test system: CAKI-1
[40] = test system: KM12
[41] = test system: UACC-257
[42] = test system: 786-0
[43] = test system: SN12C
[44] = test system: NCI/ADR-RES
[45] = test system: NCI-H522
[46] = test system: SW-620
[47] = test system: HL-60
[48] = test system: PC-3
[49] = test system: SF-268
[50] = test system: DU-145
[51] = test system: HOP-92
[52] = test system: MDA-MB-435
[53] = test system: Hs-578T
[54] = test system: SK-MEL-2
[55] = test system: M14
[56] = test system: LOX IMVI
[57] = test system: MDA-MB-231
[58] = test system: SK-MEL-28
[59] = test system: HCC 2998

In the case of `CC(C)(C)[Si](C)(C)Oc1ccc(C2CNC(=O)C23CCC(=O)N3Cc2ccccc2)cc1` (stereo unspecified), the GI50 [1] is reported as 15 µM (inactive), the GI50 [2] is reported as 15.5 µM (inactive) and the GI50 [3] is reported as 10.7 µM (inactive). For the same molecule, the GI50 [4] was 6.14 µM (inactive), the GI50 [5] was 4.15 µM (inactive) and the GI50 [6] was 13.7 µM (inactive). For the same molecule, the GI50 [7] was 12.5 µM (inactive), the GI50 [8] was 17.5 µM (inactive) and the GI50 [9] was 12.2 µM (inactive). For the same molecule, the GI50 [10] was 15.2 µM (inactive), the GI50 [11] was 15 µM (inactive) and the GI50 [12] was 18.9 µM (inactive). For the same molecule, the GI50 [13] was 20.5 µM (inactive), the GI50 [14] was 12.5 µM (inactive) and the GI50 [15] was 7.14 µM (inactive). For the same molecule, the GI50 [16] was 15.9 µM (inactive), the GI50 [17] was 5.71 µM (inactive) and the GI50 [18] was 17.8 µM (inactive). The GI50 [19] was 15.5 µM (inactive), the GI50 [20] was 22.2 µM (inactive) and the GI50 [21] was 11.7 µM (inactive). For the same molecule, the GI50 [22] was 4.54 µM (inactive), the GI50 [23] was 13.3 µM (inactive) and the GI50 [24] was 11.4 µM (inactive). For the same molecule, the GI50 [25] was 10 µM (inactive), the GI50 [26] was 12.2 µM (inactive) and the GI50 [27] was 7.96 µM (inactive). For the same molecule, the GI50 [28] was 16.7 µM (inactive), the GI50 [29] was 13.9 µM (inactive) and the GI50 [30] was 18.2 µM (inactive). The GI50 [31] was 17.6 µM (inactive), the GI50 [32] was 7.24 µM (inactive) and the GI50 [33] was 15.3 µM (inactive). For the same molecule, the GI50 [34] was 13.2 µM (inactive), the GI50 [35] was 12.8 µM and the GI50 [36] was 6.68 µM (inactive). The GI50 [37] was 12.6 µM (inactive), the GI50 [38] was 16 µM (inactive) and the GI50 [39] was 19.7 µM (inactive). The GI50 [40] was 15.8 µM (inactive), the GI50 [41] was 12.4 µM (inactive) and the GI50 [42] was 18.9 µM (inactive). For the same molecule, the GI50 [43] was 15 µM (inactive), the GI50 [44] was 12.8 µM (inactive) and the GI50 [45] was 10.7 µM (inactive). The GI50 [46] was 15.1 µM (inactive), the GI50 [47] was 4.62 µM (inactive) and the GI50 [48] was 15.2 µM (inactive). For the same molecule, the GI50 [49] was 12.6 µM (inactive), the GI50 [50] was 16.7 µM (inactive) and the GI50 [51] was 17.1 µM (inactive). The GI50 [52] was 12.4 µM (inactive), the GI50 [53] was 7.31 µM (inactive) and the GI50 [54] was 16.6 µM (inactive). The GI50 [55] was 16.4 µM (inactive) and the GI50 [56] was 16.1 µM (inactive).
In the case of `O=C(O)c1cncc(C(=O)O)c1`, the GI50 [1] is reported as > 100 µM (inactive), the GI50 [2] is reported as > 100 µM (inactive) and the GI50 [3] is reported as > 100 µM (inactive). The GI50 [4] was > 100 µM (inactive), the GI50 [5] was > 100 µM (inactive) and the GI50 [6] was > 100 µM (inactive). The GI50 [7] was > 100 µM (inactive), the GI50 [8] was > 100 µM (inactive) and the GI50 [9] was > 100 µM (inactive). For the same molecule, the GI50 [10] was > 100 µM (inactive), the GI50 [11] was > 100 µM (inactive) and the GI50 [12] was > 100 µM (inactive). For the same molecule, the GI50 [13] was > 100 µM (inactive), the GI50 [14] was > 100 µM (inactive) and the GI50 [15] was > 100 µM (inactive). The GI50 [16] was > 100 µM (inactive), the GI50 [17] was > 100 µM (inactive) and the GI50 [18] was > 100 µM (inactive). The GI50 [19] was > 100 µM (inactive), the GI50 [20] was > 100 µM (inactive) and the GI50 [21] was > 100 µM (inactive). For the same molecule, the GI50 [22] was > 100 µM (inactive), the GI50 [23] was > 100 µM (inactive) and the GI50 [24] was > 100 µM (inactive). The GI50 [25] was > 100 µM (inactive), the GI50 [26] was > 100 µM (inactive) and the GI50 [28] was > 100 µM (inactive). For the same molecule, the GI50 [29] was > 100 µM (inactive), the GI50 [30] was > 100 µM (inactive) and the GI50 [31] was > 100 µM (inactive). For the same molecule, the GI50 [32] was > 100 µM (inactive), the GI50 [33] was > 100 µM (inactive) and the GI50 [34] was > 100 µM (inactive). The GI50 [35] was over 100 µM, the GI50 [36] was > 100 µM (inactive) and the GI50 [37] was > 100 µM (inactive). The GI50 [38] was > 100 µM (inactive), the GI50 [39] was > 100 µM (inactive) and the GI50 [40] was > 100 µM (inactive). For the same molecule, the GI50 [41] was > 100 µM (inactive), the GI50 [42] was > 100 µM (inactive) and the GI50 [43] was > 100 µM (inactive). The GI50 [57] was > 100 µM (inactive), the GI50 [44] was > 100 µM (inactive) and the GI50 [45] was > 100 µM (inactive). For the same molecule, the GI50 [46] was > 100 µM (inactive), the GI50 [47] was > 100 µM (inactive) and the GI50 [48] was > 100 µM (inactive). The GI50 [49] was > 100 µM (inactive), the GI50 [58] was > 100 µM (inactive) and the GI50 [50] was > 100 µM (inactive). The GI50 [52] was > 100 µM (inactive), the GI50 [53] was > 100 µM (inactive) and the GI50 [54] was > 100 µM (inactive). The GI50 [55] was > 100 µM (inactive) and the GI50 [56] was > 100 µM (inactive).
In the case of `Cc1cccc(C(C)O)n1` (stereo unspecified), the GI50 [1] is reported as > 100 µM (inactive), the GI50 [2] is reported as > 100 µM (inactive) and the GI50 [4] is reported as > 100 µM (inactive). For the same molecule, the GI50 [6] was > 100 µM (inactive), the GI50 [7] was > 100 µM (inactive) and the GI50 [8] was > 100 µM (inactive). The GI50 [9] was > 100 µM (inactive), the GI50 [10] was > 100 µM (inactive) and the GI50 [11] was > 100 µM (inactive). For the same molecule, the GI50 [12] was > 100 µM (inactive), the GI50 [13] was > 100 µM (inactive) and the GI50 [14] was > 100 µM (inactive). For the same molecule, the GI50 [15] was > 100 µM (inactive), the GI50 [16] was > 100 µM (inactive) and the GI50 [17] was > 100 µM (inactive). The GI50 [18] was > 100 µM (inactive), the GI50 [19] was > 100 µM (inactive) and the GI50 [20] was > 100 µM (inactive). The GI50 [21] was > 100 µM (inactive), the GI50 [22] was > 100 µM (inactive) and the GI50 [23] was > 100 µM (inactive). The GI50 [24] was > 100 µM (inactive), the GI50 [25] was > 100 µM (inactive) and the GI50 [26] was > 100 µM (inactive). The GI50 [27] was > 100 µM (inactive), the GI50 [28] was > 100 µM (inactive) and the GI50 [29] was > 100 µM (inactive). For the same molecule, the GI50 [30] was 24 µM (inactive), the GI50 [31] was > 100 µM (inactive) and the GI50 [32] was > 100 µM (inactive). For the same molecule, the GI50 [33] was > 100 µM (inactive), the GI50 [34] was > 100 µM (inactive) and the GI50 [59] was > 100 µM (inactive). The GI50 [35] was over 100 µM, the GI50 [36] was > 100 µM (inactive) and the GI50 [37] was > 100 µM (inactive). For the same molecule, the GI50 [38] was > 100 µM (inactive), the GI50 [39] was > 100 µM (inactive) and the GI50 [40] was > 100 µM (inactive). The GI50 [41] was > 100 µM (inactive), the GI50 [42] was > 100 µM (inactive) and the GI50 [43] was > 100 µM (inactive). The GI50 [57] was > 100 µM (inactive), the GI50 [44] was > 100 µM (inactive) and the GI50 [45] was > 100 µM (inactive). The GI50 [46] was > 100 µM (inactive), the GI50 [47] was > 100 µM (inactive) and the GI50 [48] was > 100 µM (inactive). The GI50 [49] was > 100 µM (inactive), the GI50 [58] was > 100 µM (inactive) and the GI50 [50] was > 100 µM (inactive). The GI50 [53] was > 100 µM (inactive), the GI50 [54] was > 100 µM (inactive) and the GI50 [55] was > 100 µM (inactive).
